SMILES strings stand for the structures.

Assay type in all cases: cell-based, human
Experiment [1] concerns NCI-H292 cells. Nature of the experiment: Immunogenic cell death: cell surface calreticulin (CALR) on live cells (flow cytometry), 48 hours. On the procedure:
(§1) Immunogenic cell death elicited by the TROP2 ADC, iSAC, iADCs and exatecan were measured by cell surface translocate of calreticulin and release of HMGB1 in the cell culture supernatant. Briefly, TROP2 positive cell line NCI-H292 were seeded into a 96-well flat bottom plate 4 hours prior to the initialization of the assay. Test articles were formulated at a 2× starting concentration in cell culture medium, and samples were serial diluted (1:3) under sterile conditions and added onto the cells in duplicates. After incubation at 37° C. in a CO2 incubator for 48 hours, the cell supernatant was collected for measuring HMGB1 and the adherent cells were collected for calreticulin expression on the cell surface.
NCI-H292 cells were detached using Accutase (Innovative Cell Technologies) and viability was accessed using a 1:500 dilution of Zombie NIR viability dye. […] Surface calreticulin measures on the live cells were gathered using an Attune NXT Flow Cytometer (ThermoFisher Scientific) to obtain median fluorescence intensity values. All data were fitted with non-linear regression analysis, using log(agonist) vs. response, variable slope, 4 parameter fit equation using GraphPad Prism.
A general note: Flow cytometry measures light scatter and fluorescence of single cells or particles in a stream.

Experiment [2] deals with NCI-H292 cells. Nature of the experiment: Immunogenic cell death: HMGB1 release in supernatant (sandwich ELISA), 48 hours. On the procedure: as §1
HMGB1 released in the supernatant was assessed via sandwich ELISA using mouse anti-human HMGB1 clone 2F6 (Sigma-Aldrich) as the capture, polyclonal rabbit anti-human HMGB1 (Abcam) as secondary, and polyclonal goat anti-rabbit IgG HRP as the detection antibody. The HMGB1 concentrations in the cell culture medium were calculated based a standard curve built on commercially available recombinant human HMGB1 (R&D Systems).
(In general: In an ELISA, binding on a coated surface is turned into a signal by an enzyme label.)

In experiment [3] the test system is NCI-H292 cells. Nature of the experiment: IP-10 and IL-6 release from TROP2 positive NCI-H292 cells, 120 hours (MSD). Particulars: for EC50: Homo sapiens. The protocol: The cell supernatant was collected and IP-10 and IL-6 released in the cell culture medium was measured using Streptavidin single spot 96 well plates, compatible human antibody pairs, and calibrating solutions commercially available from MesoScale Discovery. Raw data generated by the Meso Scale Discovery (MSD®) SQ120 plate reader was imported into MSD Discovery Workbench software. Unknown sample values were interpolated from standard curves by the software and imported into Graphpad Prism. Each cytokine level was fitted with non-linear regression analysis, using log(agonist) vs. response, variable slope, 4-parameter fit equation in GraphPad Prism.

The subject of experiment [4] is NCI-H441 (Trop2+). Briefly: Cell proliferation (cell killing) assay, Cell Titer-Glo, 120 hours. The protocol: (§2) The cytotoxicity of the ADCs, iSACs and iADCs was measured in a cell proliferation assay. TROP2 positive NCI-H292, NCI-H441 cells and TROP2 negative NCI-H460 and NCI-H1703 cells were obtained from ATCC (American Type Culture Collection) and maintained in DMEM/F12 (1:1), high glucose (Corning) supplemented with 10% heat-inactivated fetal bovine serum (Thermo Scientific), 2 mM glutamax (Thermo Scientific), and 1× Penicillin/Streptomycin (Corning).
(§3) Cells were collected and counted by the Vi-CELL Cell Viability Analyzers (Beckman Coulter). A total of 7500 cells in a volume of 50 uL were seeded in each well of a 96-well flat bottom white Polystyrene plate. Test articles were diluted at 2× final concentration in the cell culture medium and 50 uL was added into each treatment well. Assay plates were cultured at 37° C. in a CO2 incubator for 120 hours. For cell viability measurement, 60 μL of Cell Titer-Glo® reagent (Promega Corp. Madison, WI) was added into each well, and plates were processed as per product instructions. Relative luminescence was measured on an ENVISION® plate reader (Perkin-Elmer; Waltham, MA). Relative luminescence readings were converted to % viability using untreated cells as controls. Data was fitted with non-linear regression analysis, using log(inhibitor) vs. response-variable slope, 4 parameter fit equation using GraphPad Prism (GraphPad v 5.00, Software; San Diego, CA).
A general note: In ATP-based viability assays light output follows the ATP content of the culture.

The subject of experiment [5] is NCI-H460 (Trop2-). The experiment is described as above. The protocol:
as §2, §3

In experiment [6] the test system is NCI-H292 (Trop2+). The experiment is described as above. On the procedure:
as §2, §3

Experiment [7] deals with NCI-H1703 (Trop2-). Described as above. The protocol:
as §2, §3

In the case of `CC[C@@]1(O)C(=O)OCc2c1cc1n(c2=O)Cc2c-1nc1cc(F)c(C)c3c1c2[C@@H](N)CC3` [Exatecan, exatecan, reference compound], the EC50 in experiment [1] (Homo sapiens, NCI-H292 live cells, cell surface) came to 0.19 nM; in experiment [2] (Homo sapiens, supernatant, read-out: HMGB-1 Release EC50), 2.08 nM; in experiment [3] (TROP2 positive NCI-H292 cells, read-out: IL-6 Release EC50), 14.7 nM; in experiment [3] (TROP2 positive NCI-H292 cells, read-out: IP-10 Release EC50), 0.87 nM; in experiment [4] (Homo sapiens), 0.57 nM; in experiment [5] (Homo sapiens), 0.97 nM. Moreover, the EC50 in experiment [6] (Homo sapiens) was 0.88 nM; in experiment [7] (Homo sapiens) it was 1.04 nM. Also, the “induction of CALR on live cells compared to untreated cells” value in experiment [1] (NCI-H292 cells) is around 2 fold. Also, in experiment [1] (NCI-H292 live cells, cell surface), the “Calreticulin Span” value stood at 783 MFI. Moreover, the “release of HMGB1 into the cell culture supernatant” value in experiment [2] is reported as around 70 ng/mL. Also, the “HMGB-1 Release Span” value in experiment [2] (supernatant) was 55 ng/mL. In experiment [3] (NCI-H292 cells), the “induction of IP-10 and IL-6 release (in words)” value is “not”. Also, the “IL-6 Release Span” value in experiment [3] (TROP2 positive NCI-H292 cells) worked out at 1410 pg/mL. In experiment [3] (TROP2 positive NCI-H292 cells), the “IP-10 Release Span” value was determined as 203 pg/mL. Further, the Span cell killing is 89% in experiment [4], 83% in experiment [5], 80% in experiment [6] and 95% in experiment [7].

One may read the EC50 as the concentration at which the effect is half-maximal.

Values taken from patent publication US20260053942A1, “STING AGONIST IMMUNOSTIMULATORY ANTIBODY DRUG CONJUGATES” (ASTELLAS PHARAMA INC., priority 2024, published 2026).
